# Laboratory results as given in ChEMBL document CHEMBL1151469, “Cytotoxic activity of N-chlorotaurine on Acanthamoeba spp” (Antimicrob Agents Chemother, 2008).
# Tests used:
# [1] = tested on: Acanthamoeba polyphaga; test: Amoebicidal activity against Trophozoites of Acanthamoeba polyphaga 5SU in peptone yeast extract glucose medium at pH 7 after 24 hrs by hemocytometer using trypan blue stain; type: functional, organism-based
# [2] = tested on: Acanthamoeba hatchetti; test: Amoebicidal activity against Trophozoites of Acanthamoeba hatchetti 11DS assessed as killing time at 10 mM in phosphate buffered saline at pH 5 by hemocytometer using trypan blue stain in presence of 290 mM ammonium chloride; type: functional
smiles,measurement,setting,value
O=S(=O)(O)CCNCl,EC50,[1],8.1 mM
same,Activity,[2],24 h
